Blank lines part the entries; values can stand above or below the molecule they belong to.
Columns and labels:
[1] = target: T1, LXRα (Homo sapiens, UniProt Q13133); conditions: read-out: LXRα antagonistic activity (IC50); cited from earlier work
T1 construct: CMX-GAL4N-hLXRα-LBD; expressed in transfected cells; host or cells: HEK293
T1 sequence (Q13133 209-447 limits assumed): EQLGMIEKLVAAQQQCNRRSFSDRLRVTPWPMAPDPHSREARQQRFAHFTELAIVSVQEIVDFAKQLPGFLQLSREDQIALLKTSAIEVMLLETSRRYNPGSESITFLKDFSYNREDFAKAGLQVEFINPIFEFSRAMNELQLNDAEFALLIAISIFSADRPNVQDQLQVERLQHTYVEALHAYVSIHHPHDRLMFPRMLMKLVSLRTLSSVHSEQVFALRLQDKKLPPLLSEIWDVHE

[2] = target: T2, PR (Homo sapiens, UniProt P06401); assay: T-47D alkaline phosphatase assay (PR antagonism); format: cell-based
T2 sequence (P06401 1-933): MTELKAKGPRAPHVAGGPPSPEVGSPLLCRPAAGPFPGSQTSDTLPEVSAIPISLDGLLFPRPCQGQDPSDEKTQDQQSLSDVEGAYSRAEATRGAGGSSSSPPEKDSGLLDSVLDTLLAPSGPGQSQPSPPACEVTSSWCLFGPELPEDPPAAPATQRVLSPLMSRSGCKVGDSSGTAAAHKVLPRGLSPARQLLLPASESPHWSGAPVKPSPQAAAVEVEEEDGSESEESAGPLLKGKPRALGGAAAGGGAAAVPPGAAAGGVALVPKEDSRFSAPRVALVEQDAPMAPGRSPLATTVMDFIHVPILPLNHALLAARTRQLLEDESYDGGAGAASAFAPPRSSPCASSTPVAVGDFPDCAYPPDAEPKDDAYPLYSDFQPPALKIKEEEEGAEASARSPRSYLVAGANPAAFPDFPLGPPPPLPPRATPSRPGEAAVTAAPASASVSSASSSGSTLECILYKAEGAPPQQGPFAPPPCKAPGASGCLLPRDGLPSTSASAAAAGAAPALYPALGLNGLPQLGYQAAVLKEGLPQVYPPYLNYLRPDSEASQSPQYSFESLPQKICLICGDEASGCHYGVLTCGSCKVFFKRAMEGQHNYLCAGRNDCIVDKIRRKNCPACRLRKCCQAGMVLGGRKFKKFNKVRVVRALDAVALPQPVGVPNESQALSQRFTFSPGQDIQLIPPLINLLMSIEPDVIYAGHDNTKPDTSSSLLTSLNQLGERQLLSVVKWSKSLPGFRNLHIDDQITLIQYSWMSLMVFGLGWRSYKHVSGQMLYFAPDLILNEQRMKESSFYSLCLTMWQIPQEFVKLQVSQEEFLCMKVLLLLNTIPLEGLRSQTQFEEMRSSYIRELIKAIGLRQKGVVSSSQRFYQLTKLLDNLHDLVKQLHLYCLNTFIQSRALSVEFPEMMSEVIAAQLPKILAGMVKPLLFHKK

[3] = target: T3, RORβ (Homo sapiens, UniProt Q92753); assay: RORβ inverse agonist reporter gene assay in HEK293; format: cell-based; conditions: new compound 43, read-out: RORβ inverse agonistic activity (IC50)
T3 construct: expressed in transfected cells; host or cells: HEK293
T3 sequence (Q92753 1-459 isoform Q92753-1): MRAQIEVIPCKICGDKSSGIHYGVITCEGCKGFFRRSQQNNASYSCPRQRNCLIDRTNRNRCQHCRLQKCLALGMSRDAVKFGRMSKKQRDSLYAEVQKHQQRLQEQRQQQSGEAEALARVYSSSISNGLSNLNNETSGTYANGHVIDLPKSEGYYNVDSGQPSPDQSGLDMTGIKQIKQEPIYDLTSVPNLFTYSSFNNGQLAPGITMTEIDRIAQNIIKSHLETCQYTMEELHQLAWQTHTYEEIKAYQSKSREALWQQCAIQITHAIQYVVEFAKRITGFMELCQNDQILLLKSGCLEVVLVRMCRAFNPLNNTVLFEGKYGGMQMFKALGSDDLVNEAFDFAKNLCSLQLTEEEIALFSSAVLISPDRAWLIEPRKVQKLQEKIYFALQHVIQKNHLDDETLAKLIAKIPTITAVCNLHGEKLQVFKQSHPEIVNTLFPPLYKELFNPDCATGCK

[4] = target: T4, RORγ (Homo sapiens, UniProt P51449); assay: RORγ inverse agonist reporter gene assay in HEK293; format: cell-based; conditions: new compound 43, read-out: RORγ inverse agonistic activity (IC50)
T4 construct: expressed in transfected cells; host or cells: HEK293
T4 sequence (P51449 1-518): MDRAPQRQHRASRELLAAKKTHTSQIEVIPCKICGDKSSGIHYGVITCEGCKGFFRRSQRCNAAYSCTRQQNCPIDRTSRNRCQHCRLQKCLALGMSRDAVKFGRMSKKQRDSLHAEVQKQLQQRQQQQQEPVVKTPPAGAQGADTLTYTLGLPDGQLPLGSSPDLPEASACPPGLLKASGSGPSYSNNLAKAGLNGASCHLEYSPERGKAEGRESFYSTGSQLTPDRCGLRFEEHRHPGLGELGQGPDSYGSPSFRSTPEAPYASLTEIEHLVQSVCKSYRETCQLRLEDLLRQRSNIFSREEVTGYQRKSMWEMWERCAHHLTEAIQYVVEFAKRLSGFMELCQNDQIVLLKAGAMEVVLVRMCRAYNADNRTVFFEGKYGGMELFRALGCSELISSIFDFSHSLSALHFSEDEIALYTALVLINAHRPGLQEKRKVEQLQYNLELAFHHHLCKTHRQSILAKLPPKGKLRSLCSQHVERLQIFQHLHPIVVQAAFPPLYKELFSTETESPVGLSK

[5] = target: T5, RORα (Homo sapiens, UniProt P35398); assay: RORα inverse agonist reporter gene assay in HEK293; format: cell-based; conditions: new compound 43, read-out: RORα inverse agonistic activity (IC50)
T5 construct: expressed in transfected cells; host or cells: HEK293
T5 sequence (P35398 1-523): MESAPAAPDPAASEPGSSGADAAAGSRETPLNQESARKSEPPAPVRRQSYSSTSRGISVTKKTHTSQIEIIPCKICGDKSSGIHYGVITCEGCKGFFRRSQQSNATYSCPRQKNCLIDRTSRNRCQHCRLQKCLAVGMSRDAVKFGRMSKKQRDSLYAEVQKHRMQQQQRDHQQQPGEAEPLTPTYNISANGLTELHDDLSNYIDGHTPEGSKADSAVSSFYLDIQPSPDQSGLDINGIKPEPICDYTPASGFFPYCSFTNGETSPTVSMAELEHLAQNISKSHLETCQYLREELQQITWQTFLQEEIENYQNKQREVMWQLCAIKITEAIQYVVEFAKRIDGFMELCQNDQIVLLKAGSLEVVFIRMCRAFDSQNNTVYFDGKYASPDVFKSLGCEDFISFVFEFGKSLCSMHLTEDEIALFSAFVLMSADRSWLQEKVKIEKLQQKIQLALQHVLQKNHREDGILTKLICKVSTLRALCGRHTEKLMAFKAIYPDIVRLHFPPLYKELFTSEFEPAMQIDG

SMILES: O=c1[nH]c2ccc(C(O)(C(F)(F)F)C(F)(F)F)cc2c2ccccc12 [Compound 1]
- IC50 [1]: 5 µM

- weaker PR activity than 12 [2]: 5 fold
SMILES: CCCCn1c(=O)c2ccc(OC)cc2c2cc(C(O)(C(F)(F)F)C(F)(F)F)ccc21 [Compound 23]

- IC50 [3]: > 20 µM
- IC50 [4]: > 20 µM
- IC50 [5]: > 20 µM
- IC50 ([2]; alkaline phosphatase, T47D cells, progesterone 1 nM, new compound 43, read-out: PR antagonistic activity (IC50)): 0.35 µM
SMILES: O=c1[nH]c2c(Cl)cc(C(O)(C(F)(F)F)C(F)(F)F)cc2c2ccccc12 [Compound 43, 4-Chloro-2-(1,1,1,3,3,3-hexafluoro-2-hydroxypropan-2-yl)phenanthridin-6(5H)-one]

— paper PMC6073568, “Efficient Lead Finding, Activity Enhancement and Preliminary Selectivity Control of Nuclear Receptor Ligands Bearing a Phenanthridinone Skeleton” (International Journal of Molecular Sciences, 2018)
